Reference: patent US6500853B1, “Inhibitors of phospholipase enzymes” (Genetics Institute, LLC, priority 1998, dated 2002)
Values joined by “and” are separate entries in the source; they are usually repeats but may differ in a detail not shown here. Equal entries are not always repeated. Where two headings read alike, the source gives them in different places.

Tests used:
cPLA2 = molecular target: T1, cPLA2 (Homo sapiens, UniProt P47712); assay: Coumarin Assay (cPLA2 inhibition); assay type: biochemical; settings: for inhibition at 6.25 µM: CONCENTRATION 6.25 micromolar; for inhibition at 10 µM: CONCENTRATION 10 micromolar; for inhibition at 19 µM: CONCENTRATION 19 micromolar; for inhibition at 100 µM: CONCENTRATION 100 micromolar; for inhibition at 30 µM: CONCENTRATION 30 micromolar; for inhibition at 0.65 µM: CONCENTRATION 0.65 micromolar; for inhibition at 0.7 µM: CONCENTRATION 0.7 micromolar; for inhibition at 0.95 µM: CONCENTRATION 0.95 micromolar
T1 sequence (P47712 1-749): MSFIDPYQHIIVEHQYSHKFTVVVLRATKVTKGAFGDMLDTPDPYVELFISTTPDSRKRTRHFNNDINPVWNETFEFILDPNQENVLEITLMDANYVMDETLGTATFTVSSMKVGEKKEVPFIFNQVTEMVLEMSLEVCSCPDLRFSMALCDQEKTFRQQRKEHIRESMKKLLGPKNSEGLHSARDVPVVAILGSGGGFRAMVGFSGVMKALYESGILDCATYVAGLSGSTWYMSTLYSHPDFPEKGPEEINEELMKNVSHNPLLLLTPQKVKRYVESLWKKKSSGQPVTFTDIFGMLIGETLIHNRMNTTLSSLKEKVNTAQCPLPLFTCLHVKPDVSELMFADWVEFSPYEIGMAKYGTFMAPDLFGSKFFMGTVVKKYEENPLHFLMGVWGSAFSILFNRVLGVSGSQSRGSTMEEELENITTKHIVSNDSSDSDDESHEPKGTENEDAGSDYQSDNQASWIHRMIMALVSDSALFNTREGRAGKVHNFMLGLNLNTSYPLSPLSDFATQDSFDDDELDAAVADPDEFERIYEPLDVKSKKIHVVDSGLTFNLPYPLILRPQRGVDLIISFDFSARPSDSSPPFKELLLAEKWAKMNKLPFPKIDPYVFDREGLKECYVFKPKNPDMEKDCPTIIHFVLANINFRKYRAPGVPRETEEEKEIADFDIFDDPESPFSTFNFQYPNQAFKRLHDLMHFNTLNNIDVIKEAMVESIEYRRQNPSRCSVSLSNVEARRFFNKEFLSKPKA
How it was run: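 Percent inhibition at the stated concentration, from the rate of 460 nm emission rise (360 nm excitation) per minute. Reaction started by adding 4 μg enzyme to compound and 60 μM 7-hydroxycoumarinyl 6-heptenoate in Hepes buffer pH 7.5 with 1 mM EDTA.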

[1] = tested on: Rat Carrageenan-Induced Footpad Edema; assay: Rat Carrageenan-Induced Footpad Edema Test; assay type: in vivo, male Sprague Dawley rats; settings: footpad volume 3 hours after carrageenan
[2] = CONCENTRATION 20 micromolar, read-out: PERCENT INHIBITION @
[3] = Rattus norvegicus, iv, 3 h, IV, 5 mg/Kg, read-out: PERCENT INHIBITION
[4] = Rattus norvegicus, po, 3 h, PO, 2 mg/Kg, read-out: PERCENT INHIBITION
[5] = Rattus norvegicus, po, 3 h, PO, 10 mg/Kg, read-out: PERCENT INHIBITION

4-[(1-benzhydryl-5-nitro-1H-indol-3-yl)methyl]3-methoxybenzoic acid [Example 12]
PERCENT INHIBITION @ (cPLA2; CONCENTRATION 0.35 micromolar): 50% | PERCENT INHIBITION @ (cPLA2; CONCENTRATION 0.38 micromolar): 50% | PERCENT INHIBITION @ (cPLA2; CONCENTRATION 0.39 micromolar): 50% | PERCENT INHIBITION @ (cPLA2; CONCENTRATION 0.4 micromolar): 50% | PERCENT INHIBITION @ (cPLA2; CONCENTRATION 0.44 micromolar): 50% | PERCENT INHIBITION @ (cPLA2; CONCENTRATION 0.45 micromolar): 50% | PERCENT INHIBITION @ (cPLA2; CONCENTRATION 0.5 micromolar): 64% | PERCENT INHIBITION @ (cPLA2; CONCENTRATION 1.25 micromolar): 86% | PERCENT INHIBITION ([1]; PO, 2 mg/Kg): 0.19% | PERCENT INHIBITION ([1]; PO, 10 mg/Kg): −0.38%

4-[(1-benzhydryl-5-{[(dimethylamino)sulfonyl]amino}-1H-indol-3-yl)methyl]-3- [Example 92]
PERCENT INHIBITION @ (cPLA2; CONCENTRATION 11 micromolar): 50% | PERCENT INHIBITION @ (cPLA2; CONCENTRATION 12.5 micromolar): 50% | PERCENT INHIBITION @ (cPLA2; CONCENTRATION 14.2 micromolar): 50% | PERCENT INHIBITION ([1]; PO, 2 mg/Kg): 27.36% | PERCENT INHIBITION ([1]; PO, 10 mg/Kg): 21.34%

COc1cc(C(=O)O)ccc1Cc1cn(C(c2ccccc2)c2ccccc2)c2ccc(NC(=O)OC3CCCC3)cc12 [Example 3, 4-[(1-benzhydryl-5-{[(cyclopentyloxy)carbonyl]amino}1H-indol-3-yl)methyl]-3-methoxybenzoic acid]
inhibition at 5 µM (cPLA2; CONCENTRATION 5 micromolar, read-out: PERCENT INHIBITION @): 50% | inhibition at 6.25 µM (cPLA2; read-out: PERCENT INHIBITION @): 51% | inhibition at 6.4 µM (cPLA2; CONCENTRATION 6.4 micromolar, read-out: PERCENT INHIBITION @): 50% | inhibition at 10 µM (cPLA2; read-out: PERCENT INHIBITION @): 41% | inhibition at 17.5 µM (cPLA2; CONCENTRATION 17.5 micromolar, read-out: PERCENT INHIBITION @): 50% | inhibition at 19 µM (cPLA2; read-out: PERCENT INHIBITION @): 50% | PERCENT INHIBITION @ (cPLA2; CONCENTRATION 20 micromolar): 38% and 43% and 44% | inhibition at 20 µM (cPLA2; [2]): 37% | inhibition at 22 µM (cPLA2; CONCENTRATION 22 micromolar, read-out: PERCENT INHIBITION @): 50% | inhibition at 23 µM (cPLA2; CONCENTRATION 23 micromolar, read-out: PERCENT INHIBITION @): 50% | inhibition at 23.5 µM (cPLA2; CONCENTRATION 23.5 micromolar, read-out: PERCENT INHIBITION @): 50% | inhibition at 24 µM (cPLA2; CONCENTRATION 24 micromolar, read-out: PERCENT INHIBITION @): 50% | inhibition at 100 µM (cPLA2; read-out: PERCENT INHIBITION @): 39% | inhibition in vivo at 5 mg/kg ([1]; Rattus norvegicus, po, 3 h, PO, 5 mg/Kg, read-out: PERCENT INHIBITION): 21.5% | inhibition in vivo at 20 mg/kg ([1]; Rattus norvegicus, po, 3 h, PO-, 20 mg/Kg, read-out: PERCENT INHIBITION): 19.6%

COc1cc(C(=O)O)ccc1Cc1cn(C(C)C)c2ccc(NC(=O)OC3CCCC3)cc12 [Example 7, 4-[(5-{[(cylopentyloxy)carbonyl]amino}-1-isopropyl-1H-indol-3yl)methyl]-3-methoxybenzoic acid]
PERCENT INHIBITION @ (cPLA2; CONCENTRATION 50 micromolar): 11% | PERCENT INHIBITION @ (cPLA2; CONCENTRATION 235 micromolar): 50% | PERCENT INHIBITION ([1]; IV, 5 mg/Kg): −0.65%

COc1cc(C(=O)O)ccc1Cc1cn(C2CCCC2)c2ccc(NC(=O)OC3CCCC3)cc12 [Example 8, 4-[(1-cyclopentyl-5-{[(cyclopentyloxy)carbonyl]amino}-1H-indol-3-yl)methyl]-3-methoxybenzoicacid]
inhibition at 65 µM (cPLA2; CONCENTRATION 65 micromolar, read-out: PERCENT INHIBITION @): 50% | inhibition at 100 µM (cPLA2; read-out: PERCENT INHIBITION @): 44% | inhibition in vivo at 5 mg/kg [1, 3]: -5.7%

CCCCNC(=O)Nc1ccc2c(c1)c(Cc1ccc(C(=O)O)cc1OC)cn2C(c1ccccc1)c1ccccc1 [Example 9, 4[(1-benzhydryl-5-{[(butylamino)carbonyl]amino}-1H-indol-3-yl)methyl]3-methoxybenzoic acid]
inhibition at 13 µM (cPLA2; CONCENTRATION 13 micromolar, read-out: PERCENT INHIBITION @): 50% | inhibition at 19 µM (cPLA2; read-out: PERCENT INHIBITION @): 50% | inhibition in vivo at 5 mg/kg [1, 3]: 4.46%

COc1cc(C(=O)O)ccc1Cc1cn(C(c2ccccc2)c2ccccc2)c2ccc(NS(C)(=O)=O)cc12 [Example 10, 4-({1-benzhydryl-5-[(methylsulfonyl)amino]-1H-indol-3-yl}methyl)-3-methoxybenzoic acid]
inhibition at 20 µM (cPLA2; [2]): 50% | inhibition at 30 µM (cPLA2; read-out: PERCENT INHIBITION @): 50% | inhibition at 33.5 µM (cPLA2; CONCENTRATION 33.5 micromolar, read-out: PERCENT INHIBITION @): 50% | inhibition at 40 µM (cPLA2; CONCENTRATION 40 micromolar, read-out: PERCENT INHIBITION @): 50% | inhibition at 45 µM (cPLA2; CONCENTRATION 45 micromolar, read-out: PERCENT INHIBITION @): 50% | inhibition in vivo at 5 mg/kg [1, 3]: 25.3%

COc1cc(C(=O)O)ccc1Cc1cn(C(c2ccccc2)c2ccccc2)c2ccc(NC(=O)C3CCCC3)cc12 [Example 11, 4-({1-benzhydryl-5-[(cyclopentylcarbonyl)amino]-1H-indol-3-yl}methyl)-3-methoxybenzoic acid]
inhibition at 10 µM (cPLA2; read-out: PERCENT INHIBITION @): 42% | inhibition at 12 µM (cPLA2; CONCENTRATION 12 micromolar, read-out: PERCENT INHIBITION @): 50% | inhibition at 12.5 µM (cPLA2; CONCENTRATION 12.5 micromolar, read-out: PERCENT INHIBITION @): 52% | inhibition at 20 µM (cPLA2; [2]): 36% | inhibition at 27.5 µM (cPLA2; CONCENTRATION 27.5 micromolar, read-out: PERCENT INHIBITION @): 50% | inhibition at 30 µM (cPLA2; read-out: PERCENT INHIBITION @): 50% | inhibition at 37 µM (cPLA2; CONCENTRATION 37 micromolar, read-out: PERCENT INHIBITION @): 50% | inhibition in vivo at 5 mg/kg [1, 3]: 14%

COc1cc(C(=O)O)ccc1Cc1cn(C(c2ccccc2)c2ccccc2)c2ccc(Br)cc12 [Example 13, 4-[(1-benzhydryl-5-bromo-1H-indol-3-yl)methyl]-3-methoxybenzoic acid]
inhibition at 0.39 µM (cPLA2; CONCENTRATION 0.39 micromolar, read-out: PERCENT INHIBITION @): 50% | inhibition at 0.4 µM (cPLA2; CONCENTRATION 0.4 micromolar, read-out: PERCENT INHIBITION @): 50% | inhibition at 0.48 µM (cPLA2; CONCENTRATION 0.48 micromolar, read-out: PERCENT INHIBITION @): 50% | inhibition at 0.55 µM (cPLA2; CONCENTRATION 0.55 micromolar, read-out: PERCENT INHIBITION @): 50% | inhibition at 0.6 µM (cPLA2; CONCENTRATION 0.6 micromolar, read-out: PERCENT INHIBITION @): 50% | inhibition at 0.65 µM (cPLA2; read-out: PERCENT INHIBITION @): 50% | inhibition at 0.7 µM (cPLA2; read-out: PERCENT INHIBITION @): 50% | inhibition at 0.75 µM (cPLA2; CONCENTRATION 0.75 micromolar, read-out: PERCENT INHIBITION @): 50% | inhibition at 0.95 µM (cPLA2; read-out: PERCENT INHIBITION @): 50% | inhibition at 2.5 µM (cPLA2; CONCENTRATION 2.5 micromolar, read-out: PERCENT INHIBITION @): 73% | inhibition at 6.25 µM (cPLA2; read-out: PERCENT INHIBITION @): 81% | inhibition in vivo at 2 mg/kg [1, 4]: 26% | inhibition in vivo at 10 mg/kg [1, 5]: 23.6%

COc1cc(C(=O)O)ccc1Cc1cn(C(c2ccccc2)c2ccccc2)c2ccc(F)cc12 [Example 14, 4-[(1-benzhydryl-5-fluoro-1H-indol-3-yl)methyl]-3-methoxybenzoic acid]
inhibition at 0.7 µM (cPLA2; read-out: PERCENT INHIBITION @): 50% | inhibition at 0.95 µM (cPLA2; read-out: PERCENT INHIBITION @): 50% | inhibition in vivo at 2 mg/kg [1, 4]: 11.5% | inhibition in vivo at 10 mg/kg [1, 5]: 8.14%

COc1cc(C(=O)O)ccc1Cc1cn(C(c2ccccc2)c2ccccc2)c2ccc(C)cc12 [Example 15, 4-[(1-benzhydryl-5-methyl-1H-indol-3-yl)methyl]-3-methoxybenzoic acid]
inhibition at 0.65 µM (cPLA2; read-out: PERCENT INHIBITION @): 50% | inhibition at 0.72 µM (cPLA2; CONCENTRATION 0.72 micromolar, read-out: PERCENT INHIBITION @): 50% | inhibition at 0.76 µM (cPLA2; CONCENTRATION 0.76 micromolar, read-out: PERCENT INHIBITION @): 50% | inhibition at 0.85 µM (cPLA2; CONCENTRATION 0.85 micromolar, read-out: PERCENT INHIBITION @): 50% | inhibition at 6.25 µM (cPLA2; read-out: PERCENT INHIBITION @): 90% | inhibition in vivo at 2 mg/kg [1, 4]: 7.05% | inhibition in vivo at 10 mg/kg [1, 5]: 6.88%
